Assay results published in patent publication US20120022121A1, “INDOLES, DERIVATIVES AND ANALOGS THEREOF AND USES THEREFOR” (priority 2007, published 2012).

Experiments:
[1] = test system: PC-3; test: Cell viability SRB assay, 96 h; assay type: cell-based; settings: Homo sapiens, PC-3, 96 h
Experimental: (§1) Cell viability (LNCaP, PC-3 prostate, DU145, PPC-1, and TSU-Pr1 prostate cancer cell lines, HT-29 colon cancer cell line, and MCF-7 breast cancer cell line) was quantitated using the sulforhodamine B (SRB) assay after 96 h coincubation with different concentrations of compound in 96-well plates. Cell viability of leukemia cells (K562 and doxorubicin-resistant K562/Dox) was quantitated by MTT assay after 96 h coincubation with different concentrations of compound in 96-well plates. Drug-induced apoptosis was determined by anti-histone ELISA assay and DNA laddering. Cell cycle progression was assessed by propidium iodide staining and fluorescence-activated cell sorting (FACS) analysis. In vitro tubulin polymerization assay was determined by CytoDYNAMIX ScreenTM3 (CDS-03) kits according to the manufacturer's instructions. Anti-apoptosis protein (Bcl-2 and Bcl-xl) and pro-apoptosis protein (Bax) were examined in LNCaP and PC-3 after 24 h incubation with different concentrations of compound 13 by Western blot assay. In vivo PC-3 xenograft studies were conducted by i.v. dosing of 50 mg/kg, 100 mg/kg and 150 mg/kg for 2 weeks.
(§2) Cells were plated in 96-well plates at a density of 800-5,000 cells/well, depending on the cell line, in their required growth media containing 10% fetal bovine serum. Preliminary studies were performed with each cell line using a variety of cell densities and incubation times to determine appropriate seeding densities. The compound of interest was dissolved in DMSO, diluted in cell culture medium (final DMSO concentration was less than 0.5% v/v), and added to quadruplicate wells at final concentrations ranging from 0 to 100 μM. Control wells to which only drug-free vehicle was added were included as negative controls.
(§3) Cells were incubated for 96 hour at 37° C. in a humidified atmosphere containing 5% carbon dioxide.
(§4) Cells were stained with SRB solution. […] WinNonlin was provided by a Pharsight Academic License to The Ohio State University.

[2] = test system: DU-145; test: Cell viability SRB assay, 96 h; assay type: cell-based; settings: Homo sapiens, DU-145, 96 h
Experimental: as §1, §2, §3, §4

[3] = test system: PPC-1; test: Cell viability SRB assay, 96 h; assay type: cell-based; settings: Homo sapiens, PPC-1, 96 h
Experimental: as §1, §2, §3, §4

[4] = test system: LNCaP; test: Cell viability SRB assay, 96 h; assay type: cell-based; settings: Homo sapiens
Experimental: as §1, §2, §3, §4

[5] = test system: TSU; test: Cell viability SRB assay, 96 h; assay type: cell-based; settings: Homo sapiens, TSU (TSU-Pr1)
Experimental: as §1, §2, §3, §4

[6] = test system: CV-1; test: Cell viability SRB assay, 96 h; assay type: cell-based; settings: Cercopithecidae, CV-1 fibroblast cell line
Experimental: as §2, §3

[7] = test system: HT-29; test: Cell viability SRB assay, 96 h; assay type: cell-based; settings: Homo sapiens, HT-29, 96 h
Experimental: as §1, §2, §3, §4

[8] = test system: MCF-7; test: Cell viability SRB assay, 96 h; assay type: cell-based; settings: Homo sapiens, MCF7; MCF-7, 96 h
Experimental: as §1, §2, §3, §4

For `O=S(=O)(c1ccccc1)n1c(-c2cccc(C(O)c3cc4ccccc4n3S(=O)(=O)c3ccccc3)c2)cc2ccccc21` (stereo not drawn) [Compound 8, (1-benzenesulfonyl-1H-indol-2-yl)-[3-(1-benzenesulfonyl-1H-indol-2-yl)phenyl]methanol], the melting point was 81 to 83 °C, the IC50 [1] was > 100000 nM and the IC50 [2] was > 100000 nM. For the same compound, the IC50 [3] was 30000 nM, the IC50 [4] was > 100000 nM and the IC50 [5] was > 100000 nM. For the same compound, the IC50 [6] was > 100000 nM.

With `c1cc(Cc2cc3ccccc3[nH]2)cc(-c2cc3ccccc3[nH]2)c1` [Compound 10, (1H-Indol-2-yl)-[3-(1H-indol-2-yl)phenyl]methane] the melting point was 193 to 194 °C, the IC50 [1] was > 50000 nM and the IC50 [2] was 18400 nM. For the same compound, the IC50 [7] was 720 nM, the IC50 [3] was > 50000 nM and the IC50 [4] was > 50000 nM. For the same compound, the IC50 [5] was 20000 to 50000 nM and the IC50 [6] was > 50000 nM.

With `O=C(c1cccc(-c2cc3ccccc3n2S(=O)(=O)c2ccccc2)c1)c1cc2ccccc2n1S(=O)(=O)c1ccccc1` [Compound 12, (1-Benzenesulfonyl-1H-indol-2-yl)-[3-(1-benzenesulfonyl-1H-indol-2-yl)phenyl]methanone] the melting point was 189 to 190 °C, the IC50 [1] was > 100000 nM and the IC50 [2] was > 100000 nM. For the same compound, the IC50 [3] was > 100000 nM, the IC50 [4] was > 100000 nM and the IC50 [5] was > 100000 nM. The IC50 [6] was > 100000 nM.

`COc1cccc(C(=O)c2cccc(-c3cc4ccccc4[nH]3)c2)c1` [Compound 81, [3-(1H-Indol-2-yl)-phenyl]-(3-methoxy-phenyl)-methanone] gave an IC50 [1] of 72 ± 13 nM, an IC50 [2] of 129 nM and an IC50 [7] of 100 nM. The IC50 [3] was 43 nM, the IC50 [4] was 47 nM and the IC50 [5] was 42 nM. For the same compound, the IC50 [8] was 43 nM.

Compound `COc1cc(OC)cc(C(=O)c2cccc(-c3cc4ccccc4[nH]3)c2)c1` [Compound 82, (3,5-Dimethoxy-phenyl)-[3-(1H-indol-2-yl)-phenyl]-methanone] has an IC50 [1] of 75 ± 16 nM, an IC50 [2] of 134 nM and an IC50 [7] of 92 nM. For the same compound, the IC50 [3] was 69 nM, the IC50 [4] was 82 nM and the IC50 [5] was 65 nM. It also gave an IC50 [8] of 54 nM.
